Results on 2 molecules are retold here after PubChem BioAssay AID743230.

The target in the experiment is cofactor-independent phosphoglycerate mutase (iPGM), Brugia malayi / Caenorhabditis elegans. The experiment in a line: nematode iPGM enzyme inhibitors, biochemical, cofactor-independent, HTS (AID 743230). The note with it: recombinant nematode iPGM, coupled NADH absorbance decline.

Molecules are shown by their SMILES.

For `CCc1cc2c[n+](C3CCCCC3)sc2s1`, the IC50 was 10.4 µM.
With `Nc1cc2cccnc2c2ncccc12` the figure was 38.3 µM.
